Results: US4724237A, “2-substituted-aminomethyl-1,4-benzodiazepines” (Merck & Co., Inc., priority 1984, dated 1988)
Structures can show the parent of a compound that is named as a salt. Where two headings read alike, the source gives them in different places. One block for each molecule: values may come before it. Square brackets hold non-standard residues; d marks the D form. Peptide text beside a SMILES is read from it. * marks the point of attachment. sY = N[C@@H](Cc1ccc(OS(=O)(=O)O)cc1)C(=O)O; Cbz = O=C(OCc1ccccc1)*; Boc = CC(C)(C)OC(=O)*

Legend:
[1] = system: kappa receptor; conditions: D. Roemer et al., Nature, 298, 759 (1982); cited from earlier work
[2] = system: rats; conditions: J. E. Morley et al.; cited from earlier work
[3] = in words; cited from earlier work
[4] = system: CCK-receptor; conditions: structure-function studies, in words; cited from earlier work
[5] = biological target: T1, CCK receptor (pancreas) (Rattus norvegicus, UniProt P30551); assay: CCK receptor binding (pancreas) method, inhibition of ^125 I-CCK-33 binding; set-up: species or system male Sprague-Dawley rat; conditions: for effect on the ^125 I-CCK receptor binding assay: additional protease inhibitors in the assay buffer
T1 construct: The whole pancreas of a male Sprague-Dawley rat (200-350 g); from tissue; host or cells: whole pancreas of male Sprague-Dawley rat, washed membrane homogenate
T1 sequence (P30551 1-444): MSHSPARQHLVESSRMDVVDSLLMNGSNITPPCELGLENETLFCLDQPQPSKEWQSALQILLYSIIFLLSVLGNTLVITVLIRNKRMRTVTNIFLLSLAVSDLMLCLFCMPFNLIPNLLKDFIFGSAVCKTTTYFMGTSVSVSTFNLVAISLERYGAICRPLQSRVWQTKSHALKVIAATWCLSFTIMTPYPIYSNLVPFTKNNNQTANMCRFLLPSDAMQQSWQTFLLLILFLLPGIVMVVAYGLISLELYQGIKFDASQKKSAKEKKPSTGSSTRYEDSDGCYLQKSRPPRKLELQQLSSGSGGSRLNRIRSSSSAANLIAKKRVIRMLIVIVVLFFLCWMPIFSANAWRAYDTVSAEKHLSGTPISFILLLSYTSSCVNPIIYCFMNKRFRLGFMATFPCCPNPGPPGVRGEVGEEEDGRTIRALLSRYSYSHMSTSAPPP
Text: (§1) Screening of the novel compounds according to the present invention to determine biological activity and obtain an IC50 value for them, in order to identify significant CCK-antagonism, may be accomplished using an ^125 I-CCK receptor binding assay and in vitro isolated tissue preparations. These tests involve the following:
CCK receptor binding (pancreas) method
CCK-33 was radiolabeled with ^125 I-Bolton Hunter reagent (2000 Ci/mmole), as described by Sankara et al. (J. Biol. Chem., 254, 9349-9351, 1979).
The whole pancreas of a male Sprague-Dawley rat (200-350 g), which had been sacrificed by decapitation, was dissected free of fat tissue and homogenized in 20 volumes of ice-cold 50 mM Tris HCl (pH 7.7 at 25° C.) with a Brinkmann Polytron PT-10. The homogenates were centrifuged at 48,000 g for 10 minutes, then the resulting pellets were resuspended in Tris Buffer, centrifuged as above, and resuspended in 200 volumes of binding assay buffer (50 mM Tris HCl, pH 7.7 at 25° C., 5 mM dithiothreitol, 0.1 mM bacitracin, 1.2 mM phenylmethane sulfonyl fluoride and 0.5 mM o-phenanthroline).
All assays were run in duplicate or triplicate, and the reaction mixtures were incubated at 37° C. for 30 minutes and centrifuged in a Beckman Microfuge (4 minutes) immediately after adding 1 ml of ice-cold incubation buffer. The supernatant was aspirated and discarded, and the pellets were counted with a Beckman Gamma 5000.

[6] = biological target: T2, CCK receptor (brain) (Cavia porcellus, UniProt H0VZC5); assay: CCK receptor binding (brain) method, inhibition of ^125 I-CCK-33 binding; set-up: species or system male Hartley guinea pig
T2 construct: The cerebral cortex was dissected and used as a receptor source; from tissue; host or cells: cerebral cortex of male Hartley guinea pig, membrane homogenate
T2 sequence (H0VZC5 entry or part of it): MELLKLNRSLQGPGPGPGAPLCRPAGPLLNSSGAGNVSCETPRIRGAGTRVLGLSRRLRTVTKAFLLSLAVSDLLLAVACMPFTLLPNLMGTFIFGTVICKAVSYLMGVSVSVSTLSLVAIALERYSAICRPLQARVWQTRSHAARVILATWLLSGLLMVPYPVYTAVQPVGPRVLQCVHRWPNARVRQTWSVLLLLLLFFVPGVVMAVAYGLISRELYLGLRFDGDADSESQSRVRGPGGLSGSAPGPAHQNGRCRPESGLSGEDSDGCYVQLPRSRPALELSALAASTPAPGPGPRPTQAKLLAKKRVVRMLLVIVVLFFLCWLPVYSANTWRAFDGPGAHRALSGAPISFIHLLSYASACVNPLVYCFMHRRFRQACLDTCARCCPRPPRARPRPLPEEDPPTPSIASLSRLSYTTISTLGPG
Description: as §1
CCK receptor binding (brain) method
CCK-33 was radiolabeled and the binding was performed according to the description for the pancreas method, with modifications according to Saito et al., J. Neurochem., 37, 483-490, 1981.
Male Hartley guinea pigs (300-500 g) were sacrificed by decapitation, and the brains were removed and placed in ice-cold 50 mM Tris HCl (Trizma-7.4)[pH 7.4 at 25° C.]. The cerebral cortex was dissected and used as a receptor source and each gram of fresh guinea pig brain tissue was homogenized in 10 ml of Tris/Trizma buffer with a Brinkman polytron PT-10. The homogenates were centrifuged at 42,000 g for 15 minutes, then the resulting pellets were resuspended in 80 volumes of binding assay buffer (10 mM N-2-hydroxy-ethyl-piperazine-N'-2-ethanesulfonic acid (HEPES), 5 mM MgCl2, 1 mM ethylene glycol-bis-(β-amino-ethyl-ether-N,N'-tetraacetic acid (EGTA), 0.4% BSA and 0.25 mg/ml bacitracin, pH 6.5).
The remainder of the binding assay method was as described for the pancreas method, except that the reaction mixtures were incubated at 25° C. for 2 hours before centrifugation.

[7] = concentration required to cause inhibition of 50% of the ^125 I-CCK binding, pancreas, 37° C., 30 minutes

SMILES: CN1c2ccccc2C(c2ccccc2F)=NCC1CNC(=O)c1ccsc1 (stereo not drawn)
opiate agonism, selectivity for the kappa receptor [1]: opiate-agonist with selectivity for the kappa receptor
food intake [2]: increase food intake in rats

SMILES: CN1c2ccccc2C(c2ccccc2F)=NCC1CNC(=O)c1ccsc1 (single isomer, unassigned; (-)) [(-)-enantiomer]
analgesic activity [3]: preferred for high analgesic activity

SMILES: CSCC[C@H](NC(=O)OC(C)(C)C)C(=O)N[C@@H](CC(=O)O)C(=O)N[C@@H](Cc1ccccc1)C(N)=O [Boc-Met-Asp-Phe-NH2] (Boc-Met-Asp-Phe-NH2)
CCK antagonism [4]: can function as CCK antagonists

SMILES: CSCC[C@H](NC(=O)[C@H](Cc1ccc(OS(=O)(=O)O)cc1)NC(=O)OCc1ccccc1)C(=O)NCC(=O)N[C@@H](Cc1c[nH]c2ccccc12)C(=O)N[C@@H](CCSC)C(=O)N[C@@H](CC(=O)O)C(N)=O [Cbz-Tyr(SO3 H)-Met-Gly-Trp-Met-Asp-NH2] (Cbz-[sY]MGWMD-NH2)
CCK antagonism [4]: can function as CCK antagonists

SMILES: CN1c2ccccc2C(c2ccccc2F)=NCC1CNC(=O)c1cc2ccccc2[nH]1 (stereo not drawn) [Example 1, 1-methyl-2-(2'-indolecarbonyl)aminomethyl-5-(2'-fluorophenyl)-2,3-dihydro-1H-1,4,-benzodiazepine]
IC50 [5, 7]: 0.16 µM
IC50 ([6]; read-out: IC50 CCK, Brain): 14 µM

SMILES: CN1c2ccccc2C(c2ccccc2F)=NCC1CNC(=O)Cc1cccc2sccc12 (stereo not drawn) [Example 2, 1-methyl-2-(4-thianaphthenemethylcarbonyl)aminomethyl-5-(2'-fluorophenyl)-2,3-dihydro-1H-1,4-benzodiazepine]
IC50 [5, 7]: 0.45 µM
IC50 [6]: 23 µM

SMILES: CN1c2ccccc2C(c2ccccc2F)=NCC1CNC(=O)[C@@H](O)c1ccccc1 (stereo partly drawn) [Example 3, 1-methyl-2-(2-L-hydroxy-2-phenylacetyl)aminomethyl-5-(2'-fluorophenyl)-2,3-dihydro-1H-1,4-benzodiazepine]
IC50 [5]: 0.6 µM
IC50 ([6]; read-out: IC50 CCK, Brain): ~100 µM

SMILES: CN1c2ccccc2C(c2ccccc2F)=NCC1CNC(=O)Cc1c[nH]c2ccccc12 (stereo not drawn) [Example 4, 1-methyl-2-(1H-indol-3-yl)methylcarbonylaminomethyl-5-(2'-fluorophenyl)-2,3-dihydro-1H-1,4-benzodiazepine hydrate]
IC50 [5]: 1 µM
IC50 ([6]; read-out: IC50 CCK, Brain): 56 µM

SMILES: COC(=O)[C@H](Cc1ccccc1)NCC1CN=C(c2ccccc2F)c2ccccc2N1C (stereo partly drawn) [Example 5, 1-methyl-2-[1-(S)-1-methoxycarbonyl-2-phenylethylamino]methyl-5-(2'-fluorophenyl)-2,3-dihydro-1H-1,4-benzodiazepine]
IC50 [5]: 1.6 µM
IC50 ([6]; read-out: IC50 CCK, Brain): ~100 µM

SMILES: CN1c2ccccc2C(c2ccccc2F)=NCC1CNc1cccc(C(F)(F)F)c1 (stereo not drawn) [Example 6, 1-methyl-2-(3'-trifluoromethylphenyl)aminomethyl-5-(2'-fluorophenyl)-2,3-dihydro-1H-1,4-benzodiazepine]
IC50 [5]: 2.2 µM
IC50 ([6]; read-out: IC50 CCK, Brain): ~100 µM

SMILES: CN1c2ccccc2C(c2ccccc2F)=NCC1CNC(=O)[C@H](Cc1c[nH]c2ccccc12)NC(=O)OC(C)(C)C (stereo partly drawn) [Example 7, 1-methyl-2-[2-((1,1-dimethylethoxy)carbonyl)amino-3-(1H-indol-3-yl)propanoyl]aminomethyl-5-(2'-fluorophenyl)-2,3-dihydro-1H-1,4-benzodiazepine]
IC50 [5]: 4.1 µM
IC50 [6]: 38.6 µM

SMILES: CC(C)COC(=O)NCC1CN=C(c2ccccc2F)c2ccccc2N1C (stereo not drawn) [Example 8, 1-methyl-2-[(2-methylpropoxy)carbonyl]aminomethyl-5-(2'-fluorophenyl)-2,3-dihydro-1H-1,4-benzodiazepine]
IC50 [5, 7]: 5.8 µM
IC50 ([6]; read-out: IC50 CCK, Brain): ~100 µM

SMILES: CN1c2ccccc2C(c2ccccc2F)=NCC1CNC(=O)[C@@H](N)Cc1c[nH]c2ccccc12 (stereo partly drawn) [Example 9, 1-methyl-2-[2-amino-3-(1H-indol-3-yl)propanoyl]aminomethyl-5-(2'-fluorophenyl)-2,3-dihydro-1H-1,4-benzodiazepine dihydrochloride sesquihydrate]
IC50 [5]: 11.6 µM
IC50 [6]: ~100 µM

SMILES: COC(C(=O)NCC1CN=C(c2ccccc2F)c2ccccc2N1C)(c1ccccc1)C(F)(F)F (stereo not drawn) [Example 10, 1-methyl-2-(2-methoxy-2-trifluoromethyl-2-phenylacetyl)aminomethyl-5-(2'-fluorophenyl)-2,3-dihydro-1H-1,4-benzodiazepine]
IC50 [5, 7]: 13 µM
IC50 [6]: ~100 µM

SMILES: CC(=O)NCSCC(NC(=O)OC(C)(C)C)C(=O)NCC1CN=C(c2ccccc2F)c2ccccc2N1C [Example 11, 1-methyl-2-[2(S)-((1,1-dimethylethoxy)carbonyl)amino-3-acetamidomethylmercaptopropanoyl]aminomethyl-5-(2'-fluorophenyl)-2,3-dihydro-1H-1,4-benzodiazepine hemihydrate]
IC50 [5]: 24 µM

SMILES: CN1c2ccccc2C(c2ccccc2F)=NCC1CNC(=O)CCC(=O)OCc1ccccc1 (stereo not drawn) [Example 12, 1-methy-2-benzoylsuccinoylaminomethyl-5-(2'-fluorophenyl)-2,3-dihydro-1H-1,4-benzodiazepine]
IC50 [5, 7]: 45 µM
IC50 [6]: 55 µM

SMILES: CC(=O)NCSCC(=O)NCC1CN=C(c2ccccc2F)c2ccccc2N1C (stereo not drawn) [Example 13, 1-methyl-2-(acetamidomethylmercaptoacetyl)aminomethyl-5-(2'-fluorophenyl-2,3-dihydro-1H-1,4-benzodiazepine hydrate]
IC50 [5, 7]: 100 µM
IC50 ([6]; read-out: IC50 CCK, Brain): ~100 µM

SMILES: CN1c2ccccc2C(c2ccccc2F)NCC1CNC(=O)c1ccsc1 (stereo not drawn) [Example 14, 1-methyl-2-(3-thiophenecarbonyl)aminomethyl-5-(2'-fluorophenyl)-2,3,4,5-tetrahydro-1H-1,4-benzodiazepine]
IC50 [5, 7]: 4.8 µM
IC50 ([6]; read-out: IC50 CCK, Brain): ~100 µM

SMILES: CSCC[C@H](N)C(=O)N[C@@H](CC(=O)O)C(=O)N[C@@H](Cc1ccccc1)C(N)=O [Met-Asp-Phe-NH2] (H-Met-Asp-Phe-NH2)
CCK antagonism [4]: can function as CCK antagonists

SMILES: CCCC(=O)Nc1nc2c(ncn2[C@@H]2O[C@@H]3COP(=O)(O)O[C@H]3[C@H]2OC(=O)CCC)c(=O)[nH]1 [dibutyryl cyclic GMP]
CCK antagonism [4]: most potent

effect on the ^125 I-CCK receptor binding assay [5]: no effect
SMILES: c1cnc2c(c1)ccc1cccnc12 [o-phenanthroline, reference compound]

SMILES: O=S(=O)(F)Cc1ccccc1 [phenyl-methane sulfonyl fluoride, reference compound]
effect on the ^125 I-CCK receptor binding assay [5]: no effect
